Measured values as given in ChEMBL document CHEMBL4507317, “Data for DCP probe BAY-899” (2021).

What was measured:
[1] = target: Dual specificity testis-specific protein kinase 1 (Homo sapiens) (UniProt Q15569); conditions: Compound concentration 1000.0 nM
[2] = target: Dual specificity mitogen-activated protein kinase kinase 6 (Homo sapiens) (UniProt P52564); conditions: Compound concentration 1000.0 nM
[3] = target: MAP kinase-interacting serine/threonine-protein kinase 2 (Homo sapiens) (UniProt Q9HBH9); conditions: Compound concentration 1000.0 nM
[4] = target: Tyrosine-protein kinase JAK3 (Homo sapiens) (UniProt P52333); conditions: Compound concentration 1000.0 nM
[5] = target: LIM domain kinase 2 (Homo sapiens) (UniProt P53671); conditions: Compound concentration 1000.0 nM
[6] = target: Beta-1 adrenergic receptor (Homo sapiens) (UniProt P08588); conditions: Compound concentration 10.0 uM
[7] = target: Mitogen-activated protein kinase kinase kinase 20 (Homo sapiens) (UniProt Q9NYL2); conditions: Compound concentration 1000.0 nM
[8] = target: Epidermal growth factor receptor (Homo sapiens) (UniProt P00533); conditions: Compound concentration 1000.0 nM
[9] = target: G protein-coupled receptor kinase 4 (Homo sapiens) (UniProt P32298); conditions: Compound concentration 1000.0 nM
Sequence of G protein-coupled receptor kinase 4 (Homo sapiens) (P32298 whole entry, looked up): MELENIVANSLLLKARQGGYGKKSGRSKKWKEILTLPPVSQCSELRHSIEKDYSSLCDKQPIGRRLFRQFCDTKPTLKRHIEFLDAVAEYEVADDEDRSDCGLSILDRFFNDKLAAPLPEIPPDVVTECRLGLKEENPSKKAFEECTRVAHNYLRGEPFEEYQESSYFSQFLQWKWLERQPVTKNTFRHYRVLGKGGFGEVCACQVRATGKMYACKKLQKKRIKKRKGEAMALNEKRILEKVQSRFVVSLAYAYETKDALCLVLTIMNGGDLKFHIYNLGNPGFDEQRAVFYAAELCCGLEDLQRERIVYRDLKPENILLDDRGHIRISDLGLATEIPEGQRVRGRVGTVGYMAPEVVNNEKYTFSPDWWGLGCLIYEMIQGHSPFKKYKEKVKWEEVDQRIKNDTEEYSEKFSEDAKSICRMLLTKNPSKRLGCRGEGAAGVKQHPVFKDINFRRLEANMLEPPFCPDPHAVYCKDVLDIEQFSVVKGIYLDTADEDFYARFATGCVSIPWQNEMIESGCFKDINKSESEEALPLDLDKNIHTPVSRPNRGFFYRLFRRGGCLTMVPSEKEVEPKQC

[10] = target: Ribosomal protein S6 kinase alpha-6 (Homo sapiens) (UniProt Q9UK32); conditions: Compound concentration 1000.0 nM
Sequence of Ribosomal protein S6 kinase alpha-6 (Homo sapiens) (Q9UK32 whole entry): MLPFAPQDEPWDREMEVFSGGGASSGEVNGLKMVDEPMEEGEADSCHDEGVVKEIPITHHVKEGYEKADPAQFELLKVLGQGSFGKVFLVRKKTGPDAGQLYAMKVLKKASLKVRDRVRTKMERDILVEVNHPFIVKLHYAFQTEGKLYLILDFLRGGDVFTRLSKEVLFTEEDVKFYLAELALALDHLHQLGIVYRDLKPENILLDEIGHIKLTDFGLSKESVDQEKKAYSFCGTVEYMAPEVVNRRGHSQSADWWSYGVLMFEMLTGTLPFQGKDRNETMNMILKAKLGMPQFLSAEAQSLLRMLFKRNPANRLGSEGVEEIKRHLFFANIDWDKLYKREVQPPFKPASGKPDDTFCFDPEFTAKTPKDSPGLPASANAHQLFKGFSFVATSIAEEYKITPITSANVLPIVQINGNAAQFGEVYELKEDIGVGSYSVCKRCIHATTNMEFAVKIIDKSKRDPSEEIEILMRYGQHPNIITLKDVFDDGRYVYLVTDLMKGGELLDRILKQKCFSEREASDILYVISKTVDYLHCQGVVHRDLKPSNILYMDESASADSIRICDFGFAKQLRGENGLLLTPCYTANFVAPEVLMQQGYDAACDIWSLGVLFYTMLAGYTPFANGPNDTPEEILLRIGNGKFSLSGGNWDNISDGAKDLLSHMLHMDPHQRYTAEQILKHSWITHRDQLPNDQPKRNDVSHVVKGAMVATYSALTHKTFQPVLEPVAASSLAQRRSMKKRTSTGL

[11] = system: eIF-2-alpha kinase GCN2 (Homo sapiens), Q9P2K8 [S808G]; conditions: Compound concentration 1000.0 nM
[12] = target: Rhodopsin kinase GRK1 (Homo sapiens) (UniProt Q15835); conditions: Compound concentration 1000.0 nM
Sequence of Rhodopsin kinase GRK1 (Homo sapiens) (Q15835 whole entry): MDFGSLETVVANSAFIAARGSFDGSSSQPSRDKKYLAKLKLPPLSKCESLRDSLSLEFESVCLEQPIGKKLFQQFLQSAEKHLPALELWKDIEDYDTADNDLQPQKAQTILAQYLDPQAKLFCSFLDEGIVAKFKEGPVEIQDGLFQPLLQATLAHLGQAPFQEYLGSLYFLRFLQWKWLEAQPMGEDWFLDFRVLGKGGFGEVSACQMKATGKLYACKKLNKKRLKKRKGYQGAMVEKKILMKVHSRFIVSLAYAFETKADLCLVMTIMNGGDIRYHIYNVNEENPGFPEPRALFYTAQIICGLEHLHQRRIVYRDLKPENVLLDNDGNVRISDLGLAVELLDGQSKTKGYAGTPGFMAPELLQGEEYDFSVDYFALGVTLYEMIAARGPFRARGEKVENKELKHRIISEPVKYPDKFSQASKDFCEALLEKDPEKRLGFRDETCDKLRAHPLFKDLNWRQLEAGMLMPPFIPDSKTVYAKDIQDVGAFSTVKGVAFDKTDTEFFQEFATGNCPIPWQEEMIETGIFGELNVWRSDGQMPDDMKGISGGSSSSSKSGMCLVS

[13] = target: Maternal embryonic leucine zipper kinase (Homo sapiens) (UniProt Q14680); conditions: Compound concentration 1000.0 nM
[14] = target: Inhibitor of nuclear factor kappa-B kinase subunit beta (Homo sapiens) (UniProt O14920); conditions: Compound concentration 1000.0 nM
[15] = target: Mitogen-activated protein kinase kinase kinase 7 (Homo sapiens) (UniProt O43318); conditions: Compound concentration 1000.0 nM
[16] = target: Serine/threonine-protein kinase ICK (Homo sapiens) (UniProt Q9UPZ9); conditions: Compound concentration 1000.0 nM
[17] = system: Epidermal growth factor receptor (Homo sapiens), P00533 [UNDEFINED MUTATION]; conditions: Compound concentration 1000.0 nM
[18] = target: Glycogen synthase kinase-3 beta (Homo sapiens) (UniProt P49841); conditions: Compound concentration 1000.0 nM
[19] = target: SRSF protein kinase 2 (Homo sapiens) (UniProt P78362); conditions: Compound concentration 1000.0 nM
Sequence of SRSF protein kinase 2 (Homo sapiens) (P78362 whole entry, looked up): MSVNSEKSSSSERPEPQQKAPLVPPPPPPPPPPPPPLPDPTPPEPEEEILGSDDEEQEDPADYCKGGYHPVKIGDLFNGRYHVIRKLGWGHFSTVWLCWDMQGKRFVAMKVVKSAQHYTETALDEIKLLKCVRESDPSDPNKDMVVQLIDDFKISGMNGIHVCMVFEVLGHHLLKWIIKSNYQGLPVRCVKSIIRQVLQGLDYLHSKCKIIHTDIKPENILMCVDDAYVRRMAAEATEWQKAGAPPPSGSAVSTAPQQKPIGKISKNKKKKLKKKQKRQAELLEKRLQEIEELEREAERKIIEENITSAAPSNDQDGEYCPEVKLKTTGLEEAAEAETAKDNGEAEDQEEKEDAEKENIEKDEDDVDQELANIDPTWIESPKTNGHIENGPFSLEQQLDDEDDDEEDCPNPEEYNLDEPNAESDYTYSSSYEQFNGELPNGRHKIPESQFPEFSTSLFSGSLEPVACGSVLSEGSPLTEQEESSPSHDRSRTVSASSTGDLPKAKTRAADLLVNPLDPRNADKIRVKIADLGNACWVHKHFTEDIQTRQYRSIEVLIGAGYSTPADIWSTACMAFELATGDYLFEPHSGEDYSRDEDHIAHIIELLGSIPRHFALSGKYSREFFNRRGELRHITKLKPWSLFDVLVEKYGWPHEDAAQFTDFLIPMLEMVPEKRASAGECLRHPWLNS

[20] = target: D(4) dopamine receptor (Homo sapiens) (UniProt P21917); conditions: Compound concentration 10.0 uM
[21] = target: Mitogen-activated protein kinase 1 (Homo sapiens) (UniProt P28482); conditions: Compound concentration 1000.0 nM
[22] = target: TGF-beta receptor type-1 (Homo sapiens) (UniProt P36897); conditions: Compound concentration 1000.0 nM
[23] = target: Ribosomal protein S6 kinase alpha-2 (Homo sapiens) (UniProt Q15349); conditions: Compound concentration 1000.0 nM
[24] = target: Activin receptor type-2A (Homo sapiens) (UniProt P27037); conditions: Compound concentration 1000.0 nM
[25] = target: Casein kinase I isoform alpha-like (Homo sapiens) (UniProt Q8N752); conditions: Compound concentration 1000.0 nM
Sequence of Casein kinase I isoform alpha-like (Homo sapiens) (Q8N752 whole entry, canonical isoform): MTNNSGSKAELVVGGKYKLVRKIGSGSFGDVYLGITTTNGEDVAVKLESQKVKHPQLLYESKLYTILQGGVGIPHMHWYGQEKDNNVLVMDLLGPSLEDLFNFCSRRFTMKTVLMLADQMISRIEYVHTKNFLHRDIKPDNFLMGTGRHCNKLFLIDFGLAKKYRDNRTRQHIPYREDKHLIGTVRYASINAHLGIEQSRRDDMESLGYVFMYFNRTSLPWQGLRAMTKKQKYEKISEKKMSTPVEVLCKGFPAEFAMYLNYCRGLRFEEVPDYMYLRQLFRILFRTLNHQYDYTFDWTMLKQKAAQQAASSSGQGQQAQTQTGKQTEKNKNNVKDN

[26] = target: Serine/threonine-protein kinase LATS1 (Homo sapiens) (UniProt O95835); conditions: Compound concentration 1000.0 nM
[27] = target: Serine/threonine-protein kinase 17B (Homo sapiens) (UniProt O94768); conditions: Compound concentration 1000.0 nM
[28] = target: Membrane-associated tyrosine- and threonine-specific cdc2-inhibitory kinase (Homo sapiens) (UniProt Q99640); conditions: Compound concentration 1000.0 nM
[29] = target: Activin receptor type-1B (Homo sapiens) (UniProt P36896); conditions: Compound concentration 1000.0 nM
[30] = target: Serine/threonine-protein kinase MRCK beta (Homo sapiens) (UniProt Q9Y5S2); conditions: Compound concentration 1000.0 nM
[31] = target: Histamine H3 receptor (Homo sapiens) (UniProt Q9Y5N1); conditions: Compound concentration 10.0 uM
[32] = target: Receptor tyrosine-protein kinase erbB-2 (Homo sapiens) (UniProt P04626); conditions: Compound concentration 1000.0 nM
[33] = target: Tyrosine-protein kinase receptor Tie-1 (Homo sapiens) (UniProt P35590); conditions: Compound concentration 1000.0 nM
Sequence of Tyrosine-protein kinase receptor Tie-1 (Homo sapiens) (P35590 whole entry, the tested form may be a part): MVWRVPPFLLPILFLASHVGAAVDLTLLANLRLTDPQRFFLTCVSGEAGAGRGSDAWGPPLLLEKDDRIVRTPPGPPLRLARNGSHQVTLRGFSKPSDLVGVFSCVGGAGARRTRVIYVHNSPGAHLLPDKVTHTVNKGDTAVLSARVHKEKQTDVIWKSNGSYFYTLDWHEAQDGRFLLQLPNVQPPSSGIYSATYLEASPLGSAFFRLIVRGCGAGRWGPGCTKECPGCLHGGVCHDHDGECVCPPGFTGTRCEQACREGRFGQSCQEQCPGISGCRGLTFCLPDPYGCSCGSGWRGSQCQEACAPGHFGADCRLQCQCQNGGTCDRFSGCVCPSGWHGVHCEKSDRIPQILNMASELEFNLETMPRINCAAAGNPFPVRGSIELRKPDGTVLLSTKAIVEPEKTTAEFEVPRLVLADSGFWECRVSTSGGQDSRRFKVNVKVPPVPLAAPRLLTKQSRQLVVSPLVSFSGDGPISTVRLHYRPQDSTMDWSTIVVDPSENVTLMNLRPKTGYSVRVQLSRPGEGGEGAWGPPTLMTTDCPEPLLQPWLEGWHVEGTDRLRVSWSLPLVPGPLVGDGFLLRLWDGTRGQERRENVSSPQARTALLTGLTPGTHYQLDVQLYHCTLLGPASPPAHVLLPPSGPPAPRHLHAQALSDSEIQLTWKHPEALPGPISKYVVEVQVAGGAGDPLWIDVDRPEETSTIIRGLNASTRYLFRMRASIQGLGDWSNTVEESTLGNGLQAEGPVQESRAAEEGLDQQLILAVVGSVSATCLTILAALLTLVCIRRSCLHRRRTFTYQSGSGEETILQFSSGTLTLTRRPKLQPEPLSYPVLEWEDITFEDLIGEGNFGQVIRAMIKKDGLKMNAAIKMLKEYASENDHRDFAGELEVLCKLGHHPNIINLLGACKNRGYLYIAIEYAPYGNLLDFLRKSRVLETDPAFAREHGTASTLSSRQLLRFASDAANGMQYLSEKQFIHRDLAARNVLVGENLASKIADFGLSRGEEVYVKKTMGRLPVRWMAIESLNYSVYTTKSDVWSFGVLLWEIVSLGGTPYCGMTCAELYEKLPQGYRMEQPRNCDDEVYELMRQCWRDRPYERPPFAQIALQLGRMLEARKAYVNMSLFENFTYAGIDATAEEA

[34] = target: Discoidin domain-containing receptor 2 (Homo sapiens) (UniProt Q16832); conditions: Compound concentration 1000.0 nM
[35] = target: Bone morphogenetic protein receptor type-1B (Homo sapiens) (UniProt O00238); conditions: Compound concentration 1000.0 nM
[36] = target: Tyrosine-protein kinase ABL1 (Homo sapiens) (UniProt P00519); conditions: Compound concentration 1000.0 nM
[37] = target: Phosphatidylinositol 4-kinase beta (Homo sapiens) (UniProt Q9UBF8); conditions: Compound concentration 1000.0 nM
Sequence of Phosphatidylinositol 4-kinase beta (Homo sapiens) (Q9UBF8 2-816 limits assumed): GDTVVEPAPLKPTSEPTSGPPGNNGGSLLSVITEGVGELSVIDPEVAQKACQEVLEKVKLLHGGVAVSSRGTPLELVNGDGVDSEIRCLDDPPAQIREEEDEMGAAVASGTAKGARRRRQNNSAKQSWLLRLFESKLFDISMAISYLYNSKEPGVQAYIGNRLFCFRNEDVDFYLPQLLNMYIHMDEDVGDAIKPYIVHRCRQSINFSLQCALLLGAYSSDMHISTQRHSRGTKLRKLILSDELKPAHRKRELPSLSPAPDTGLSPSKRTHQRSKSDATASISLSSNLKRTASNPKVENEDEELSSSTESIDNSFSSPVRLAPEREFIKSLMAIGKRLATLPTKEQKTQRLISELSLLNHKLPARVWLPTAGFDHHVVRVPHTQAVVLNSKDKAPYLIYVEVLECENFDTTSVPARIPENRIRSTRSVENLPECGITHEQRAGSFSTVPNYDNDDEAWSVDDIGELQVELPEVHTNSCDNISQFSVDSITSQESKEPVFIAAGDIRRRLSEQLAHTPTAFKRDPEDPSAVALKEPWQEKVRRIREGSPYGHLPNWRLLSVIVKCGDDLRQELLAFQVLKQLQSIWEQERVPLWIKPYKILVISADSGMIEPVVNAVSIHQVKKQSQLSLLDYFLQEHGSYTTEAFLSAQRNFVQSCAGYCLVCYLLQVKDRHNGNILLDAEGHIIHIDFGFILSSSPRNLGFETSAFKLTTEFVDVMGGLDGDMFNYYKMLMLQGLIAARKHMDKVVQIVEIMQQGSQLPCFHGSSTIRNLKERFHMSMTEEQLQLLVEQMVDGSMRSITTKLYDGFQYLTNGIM

[38] = target: Tyrosine-protein kinase Fer (Homo sapiens) (UniProt P16591); conditions: Compound concentration 1000.0 nM
[39] = system: Receptor-type tyrosine-protein kinase FLT3 (Homo sapiens), P36888 [D835Y]; conditions: Compound concentration 1000.0 nM
[40] = system: Tyrosine-protein kinase ABL1 (Homo sapiens), P00519 [F317I]; conditions: Compound concentration 1000.0 nM
[41] = target: Mitogen-activated protein kinase kinase kinase 4 (Homo sapiens) (UniProt Q9Y6R4); conditions: Compound concentration 1000.0 nM
[42] = target: Phosphatidylinositol 5-phosphate 4-kinase type-2 gamma (Homo sapiens) (UniProt Q8TBX8); conditions: Compound concentration 1000.0 nM
[43] = target: Ribosomal protein S6 kinase beta-1 (Homo sapiens) (UniProt P23443); conditions: Compound concentration 1000.0 nM
[44] = target: Serine/threonine-protein kinase PAK 6 (Homo sapiens) (UniProt Q9NQU5); conditions: Compound concentration 1000.0 nM
[45] = target: Cyclin-dependent kinase 2 (Homo sapiens) (UniProt P24941); conditions: Compound concentration 1000.0 nM

O=C(Nc1ccc(Oc2ccc(F)cc2)cc1)N1CCc2ncccc2[C@H]1c1ccc(F)cc1 [BAY-897]
inactive: residual activity [1] 100% | residual activity [2] 100% | residual activity [3] 91% | residual activity [4] 100% | residual activity [5] 93% | inhibition [6] -7.28% | residual activity [7] 100% | residual activity [8] 100% | residual activity [9] 93% | residual activity [10] 91% | residual activity [11] 100% | residual activity [12] 91% | residual activity [13] 78% | residual activity [14] 100% | residual activity [15] 89% | residual activity [16] 76% | residual activity [17] 100% | residual activity [18] 100% | residual activity [19] 100% | inhibition [20] 0.29% | residual activity [21] 100% | residual activity [22] 85% | residual activity [23] 94% | residual activity [24] 100% | residual activity [25] 92% | residual activity [26] 86% | residual activity [27] 89% | residual activity [28] 63% | residual activity [29] 94% | residual activity [30] 88% | inhibition [31] 3.57% | residual activity [32] 100% | residual activity [33] 85% | residual activity [34] 100% | residual activity [35] 87% | residual activity [36] 100% | residual activity [37] 75% | residual activity [38] 91% | residual activity [39] 99% | residual activity [40] 100% | residual activity [41] 100% | residual activity [42] 94% | residual activity [43] 100% | residual activity [44] 100% | residual activity [45] 90%

O=C(Nc1cnc(Oc2ccc(F)cc2)nc1)N1CCc2ncccc2[C@@H]1c1ccc(F)cc1 [BAY-899]
inactive: residual activity [1] 91% | residual activity [2] 77% | residual activity [3] 94% | residual activity [4] 91% | residual activity [5] 97% | inhibition [6] 11.3% | residual activity [7] 100% | residual activity [8] 100% | residual activity [9] 67% | residual activity [10] 100% | residual activity [11] 85% | residual activity [12] 91% | residual activity [13] 66% | residual activity [14] 100% | residual activity [15] 90% | residual activity [16] 92% | residual activity [17] 100% | residual activity [18] 100% | residual activity [19] 100% | inhibition [20] 43.8% | residual activity [21] 100% | residual activity [22] 90% | residual activity [23] 79% | residual activity [24] 83% | residual activity [25] 82% | residual activity [26] 100% | residual activity [27] 92% | residual activity [28] 80% | residual activity [29] 100% | residual activity [30] 73% | inhibition [31] -8.41% | residual activity [32] 80% | residual activity [33] 88% | residual activity [34] 100% | residual activity [35] 98% | residual activity [36] 93% | residual activity [37] 89% | residual activity [38] 93% | residual activity [39] 100% | residual activity [40] 100% | residual activity [41] 89% | residual activity [42] 86% | residual activity [43] 89% | residual activity [44] 100% | residual activity [45] 100%
